Measured values reported in patent US10344330B2, “Glatiramer acetate response biomarker mRNA potency assay” (Mylan Inc., priority 2013, dated 2019).

Experiments:
Type in all cases: cell-based, mouse
[1] = tested on: IL-5 mRNA in LN cells; assay: IL-5 mRNA by real-time PCR in LN cells of GA-immunized CD-1, BALB/cByJ, SJL/J mice (Example III); conditions: 6 hours
Method: (§1) On Day 0, mice were immunized with 250 μg GA (GMA, Mylan Pharmaceuticals, Inc.) and CFA. The GA solution (20 mg/mL) was diluted with Dulbecco's Phosphate-Buffered Saline to 5 mg/mL. The dosing formulation consisted of equal volumes of the diluted GA solution (5 mg/mL) and CFA solution, mixed until well-emulsified. Animals were weighed and allocated to groups. Animals were dosed by injection into four footpads. The injection volume per animal was 0.1 mL (about 10 μL into each front footpad, and 40 μL into each hind footpad).
(§2) Immunized animals were euthanized by cervical dislocation on Day 10 post-immunization. Lymph node cells were isolated from animals and treated with Myelin Basic Protein (MBP, a negative control), Concanavalin A (ConA, a positive control) or GA as shown in Table 16. Lymph nodes in the axillary and popliteal regions were removed aseptically in a purifier clean bench. […] The LN were then washed 3 times with −5 mL of RPMI medium, and isolated by pressing the LN with a syringe plunger. […] The cell suspension was centrifuged at about 200×g for 10 minutes at about 4° C. and re-suspended in ice cold enriched DCCM-1 medium. Cells were seeded in 96-well tissue culture plates.
(§3) LN cells isolated from GA-immunized animals were stimulated with GA (GMA, Mylan Pharmaceuticals, Inc.) at concentrations as indicated in Tables 16 and 17. A positive control was prepared by treating LN cells with 2.5 μg/mL concavalin A (ConA, a non-specific T cell stimulant). Myelin basic protein (MBP, 10 μg/mL) and enriched DCCM-1 medium served as negative controls. The cells from all groups each were stimulated with the same GA lot. Each reaction was set up in triplicate.
(§4) After incubation at about 37° C. in a humidified CO2 incubator for 6 hours, the cells were lysed for total RNA isolation. Total RNA was isolated from treated LN cells using SV 96 Total RNA Isolation System according to the manufacturer's protocol (Promega, Cat. #Z3500). Cells were washed once with Phosphate Buffered Saline (PBS) and lysed in RNA lysis buffer. The lysate was transferred to wells of the SV 96 binding plate. Samples were washed with RNA wash solution and treated with DNase. Total RNA was eluted with nuclease-free water from the binding plate.
(§5) After the reverse transcriptase reaction was completed, cDNA samples were used directly for real-time PCR to measure the response biomarker mRNA levels produced by the stimulated cells. […] All probes for target genes contained FAM dye, and probes for the internal control contained VIC®/MGB dye. Samples will be prepared and run in 96-well plates using a Real-Time PCR system (7500, Life Technologies). This system allows direct detection of PCR-product formation by measuring the increase in fluorescent emission continuously during the PCR reaction. A relative quantitation method was used to analyze changes in mouse IL-2, IL-4, IL-5, IL-10, IL-13, IFN-γ and TNF-α expression in GA-treated samples relative to the untreated control (enriched DCCM-1 treated) samples. The Real-Time PCR program was:
(§6) The levels of mouse cytokine amplicons (IL-2, IL-4, IL-5, IL-10, IL-13, mIFN-γ and TNF-α) were normalized to internal probe levels (GAPDH) from the same samples. The following equations were used to calculate the relative increase in response to GA stimulation compared to the control sample: ΔCT=CT_target−CT_reference ΔΔCT=−ΔCT_Treated−CT_VC

[2] = tested on: IL-4 secreted by LN cells; assay: IL-4 secretion by GA-stimulated LN cells, MSD 9-plex ELISA (Example II); conditions: for IL-4 secretion response ratio (treated cell medium to control DCCM1 medium): 21 hr
Method: Animals at 8 weeks of age were immunized by injection into four footpads using a 1 mL syringe with a 27-G, 1⁄2-inch needle. […] Ten days post-immunization, immunized animals were sacrificed via cervical dislocation. […] The LN cells were isolated by pressing the LN with the plunger end of a sterile syringe. […] Trypan blue exclusion method was used to determine the cell density of viable cells in the suspension. […] Cat. […] LN cells were plated into a 24-well tissue culture plate for drug stimulation. […] Cell debris was removed by centrifugation at ca. 200×g for 10 minutes at 4° C. Cytokines secreted by treated cells were determined on the day of collection by ELISA using mouse TH 1/TH 2 9-Plex Tissue Culture Kit (Meso Scale Discovery; Cat No. […]-2, Lot #: K0032839) which detects Th1 cytokines (IFN-γ, IL-2, IL-12, IL-1β, TNF-α, CXCL1) and Th2 cytokines (IL-4, IL-5 and IL-10). For IFN-γ, culture media also were assayed at 45 hours using mouse IFN-γ Tissue Culture Kit (Meso Scale Discovery; Cat No. […] For the positive control, 0.5 mL of LN cells (5×10^6 cells/well) were treated with 0.5 mL of ConA (5 μg/mL). For the negative control, 0.5 mL of LN cells (5×10^6 cells/well) were treated with 0.5 mL of MBP (20 μg/mL). The LN cells with mock stimulation (enriched DCCM1 medium) were used to monitor the background level of a cytokine. For the cytokine assays, calibration standards or samples were incubated in the MULTI-SPOT or the SINGLE-SPOT plate and each cytokine bound to its corresponding capture antibody. All test samples were run in duplicate. The amount of each cytokine on its distinct spot was quantified using a cytokine-specific detection antibody labeled with MSD SULFO-TAGTM reagent. Electrochemiluminescent signals from immobilized SULFO-TAGTM-labeled complexes on each spot from each well were captured by the MSD SECTOR Imager 6000, which produces a signal directly proportional to the amount of captured cytokine in a test sample. The levels of cytokines in test samples were derived by interpolation from calibration curves with calibration standards of known concentrations using reagents provided with the MSD kits. Kits were used according to the manufacturer's protocols. […] Data are expressed as a response ratio of cytokine concentration in treated cell medium to control DCCM1 medium.

[3] = tested on: IFN-γ mRNA in LN cells; assay: IFN-γ mRNA by real-time PCR in LN cells of GA-immunized CD-1, BALB/cByJ, SJL/J mice (Example III); conditions: 6 hours
Method: as §1, §2, §3, §4, §5, §6

[4] = tested on: TNF-α mRNA in LN cells; assay: TNF-α mRNA by real-time PCR in LN cells of GA-immunized CD-1, BALB/cByJ, SJL/J mice (Example III); conditions: 6 hours
Method: as §1, §2, §3, §4, §5, §6

[5] = Group 1C: CD-1, GA-immunized, stimulation 0.3 μg/mL
[6] = Group 1C: CD-1, GA-immunized, stimulation 1 μg/mL
[7] = Group 1C: CD-1, GA-immunized, stimulation 3 μg/mL
[8] = Group 1C: CD-1, GA-immunized, stimulation 10 μg/mL
[9] = Group 2C: BALB/cByJ, GA-immunized, stimulation 0.3 μg/mL
[10] = Group 2C: BALB/cByJ, GA-immunized, stimulation 1 μg/mL
[11] = Group 2C: BALB/cByJ, GA-immunized, stimulation 3 μg/mL
[12] = Group 2C: BALB/cByJ, GA-immunized, stimulation 10 μg/mL
[13] = Group 3C: SJL/J, GA-immunized, stimulation 0.3 μg/mL
[14] = Group 3C: SJL/J, GA-immunized, stimulation 1 μg/mL
[15] = Group 3C: SJL/J, GA-immunized, stimulation 3 μg/mL
[16] = Group 3C: SJL/J, GA-immunized, stimulation 10 μg/mL
[17] = Group 1C: CD-1, GA-immunized, stimulation 2.5 μg/mL
[18] = Group 2C: BALB/cByJ, GA-immunized, stimulation 2.5 μg/mL
[19] = Group 3C: SJL/J, GA-immunized, stimulation 2.5 μg/mL
[20] = BALB/cByJ, immunized GA Intraplantar
[21] = BALB/cByJ, immunized GA Lower Limb
[22] = BALB/cByJ, immunized Mannitol Intraplantar
[23] = C57BL10J, immunized GA Intraplantar
[24] = C57BL10J, immunized GA Lower Limb
[25] = C57BL10J, immunized Mannitol Intraplantar
[26] = CD-1, immunized GA Intraplantar
[27] = CD-1, immunized Mannitol Intraplantar

L-glutamic acid polymer with L-alanine, L-lysine and L-tyrosine, acetate (salt) [GA]
IL-5 mRNA Expression [1, 5]: 1.0 fold change vs control
IL-5 mRNA Expression [1, 6]: 1.8 fold change vs control
IL-5 mRNA Expression [1, 7]: 3.2 fold change vs control
IL-5 mRNA Expression [1, 8]: 5.4 fold change vs control
IL-5 mRNA Expression [1, 9]: 0.5 fold change vs control
IL-5 mRNA Expression [1, 10]: 1.6 fold change vs control
IL-5 mRNA Expression [1, 11]: 2.3 fold change vs control
IL-5 mRNA Expression [1, 12]: 3.5 fold change vs control
IL-5 mRNA Expression [1, 13]: 0.6 fold change vs control
IL-5 mRNA Expression [1, 14]: 2.1 fold change vs control
IL-5 mRNA Expression [1, 15]: 5.1 fold change vs control
IL-5 mRNA Expression [1, 16]: 4.3 fold change vs control
IL-4 secretion, dose response to GA (in words) ([2]; BALB/cByJ cells): dose-dependent manner
IFN-γ mRNA Expression [3, 5]: 1.6 fold change vs control
IFN-γ mRNA Expression [3, 6]: 2.8 fold change vs control
IFN-γ mRNA Expression [3, 7]: 4.3 fold change vs control
IFN-γ mRNA Expression [3, 8]: 3.1 fold change vs control
IFN-γ mRNA Expression [3, 9]: 1.2 fold change vs control
IFN-γ mRNA Expression [3, 10]: 1.7 fold change vs control
IFN-γ mRNA Expression [3, 11]: 2.8 fold change vs control
IFN-γ mRNA Expression [3, 12]: 2.2 fold change vs control
IFN-γ mRNA Expression [3, 13]: 0.9 fold change vs control
IFN-γ mRNA Expression [3, 14]: 1.7 fold change vs control
IFN-γ mRNA Expression [3, 15]: 2.5 fold change vs control
IFN-γ mRNA Expression [3, 16]: 2.2 fold change vs control
TNF-α mRNA Expression [4, 5]: 1.0 fold change vs control
TNF-α mRNA Expression [4, 6]: 1.1 fold change vs control
TNF-α mRNA Expression [4, 7]: 1.4 fold change vs control
TNF-α mRNA Expression [4, 8]: 1.1 fold change vs control
TNF-α mRNA Expression [4, 9]: 0.1 fold change vs control
TNF-α mRNA Expression [4, 10]: 1.0 fold change vs control
TNF-α mRNA Expression [4, 11]: 0.8 fold change vs control
TNF-α mRNA Expression [4, 12]: 0.5 fold change vs control
TNF-α mRNA Expression [4, 13]: 0.8 fold change vs control
TNF-α mRNA Expression [4, 14]: 0.9 fold change vs control
TNF-α mRNA Expression [4, 15]: 0.9 fold change vs control
TNF-α mRNA Expression [4, 16]: 0.8 fold change vs control

Concanavalin A [ConA, reference compound]
IL-5 mRNA Expression [1, 17]: 19.1 fold change vs control
IL-5 mRNA Expression [1, 18]: 9.1 fold change vs control
IL-5 mRNA Expression [1, 19]: 9.7 fold change vs control
IL-4 secretion response ratio (treated cell medium to control DCCM1 medium) [2, 20]: 46.47
IL-4 secretion response ratio (treated cell medium to control DCCM1 medium) [2, 21]: 75.33
IL-4 secretion response ratio (treated cell medium to control DCCM1 medium) [2, 22]: 24.71
IL-4 secretion response ratio (treated cell medium to control DCCM1 medium) [2, 23]: 3.26
IL-4 secretion response ratio (treated cell medium to control DCCM1 medium) [2, 24]: 4.85
IL-4 secretion response ratio (treated cell medium to control DCCM1 medium) [2, 25]: 3.14
IL-4 secretion response ratio (treated cell medium to control DCCM1 medium) [2, 26]: 9.86
IL-4 secretion response ratio (treated cell medium to control DCCM1 medium) ([2]; CD-1, immunized GA Lower Limb): 4.91
IL-4 secretion response ratio (treated cell medium to control DCCM1 medium) [2, 27]: 3.36
IFN-γ mRNA Expression [3, 17]: 4.0 fold change vs control
IFN-γ mRNA Expression [3, 18]: 1.4 fold change vs control
IFN-γ mRNA Expression [3, 19]: 1.4 fold change vs control
TNF-α mRNA Expression [4, 17]: 0.6 fold change vs control
TNF-α mRNA Expression [4, 18]: 0.8 fold change vs control
TNF-α mRNA Expression [4, 19]: 0.7 fold change vs control

B1: MBP: myelin basic protein, a negative control (protein, UniProt P02686 1-304, looked up)
Myelin basic protein: MGNHAGKRELNAEKASTNSETNRGESEKKRNLGELSRTTSEDNEVFGEADANQNNGTSSQDTAVTDSKRTADPKNAWQDAHPADPGSRPHLIRLFSRDAPGREDNTFKDRPSESDELQTIQEDSAATSESLDVMASQKRPSQRHGSKYLATASTMDHARHGFLPRHRDTGILDSIGRFFGGDRGAPKRGSGKDSHHPARTAHYGSLPQKSHGRTQDENPVVHFFKNIVTPRTPPPSQGKGRGLSLSRFSWGAEGQRPGFGYGGRASDYKSAHKGFKGVDAQGTLSKIFKLGGRDSRSGSPMARR
IL-5 mRNA Expression [1, 8]: 0.8 fold change vs control
IL-5 mRNA Expression [1, 12]: 0.2 fold change vs control
IL-5 mRNA Expression [1, 16]: 0.8 fold change vs control
IL-4 secretion response ratio (treated cell medium to control DCCM1 medium) [2, 20]: 0.99
IL-4 secretion response ratio (treated cell medium to control DCCM1 medium) [2, 21]: 1.05
IL-4 secretion response ratio (treated cell medium to control DCCM1 medium) [2, 22]: 1.50
IL-4 secretion response ratio (treated cell medium to control DCCM1 medium) [2, 23]: 1.09
IL-4 secretion response ratio (treated cell medium to control DCCM1 medium) [2, 24]: 1.14
IL-4 secretion response ratio (treated cell medium to control DCCM1 medium) [2, 25]: 1.03
IL-4 secretion response ratio (treated cell medium to control DCCM1 medium) [2, 26]: 0.99
IL-4 secretion response ratio (treated cell medium to control DCCM1 medium) ([2]; CD-1, immunized GA Lower Limb): 0.94
IL-4 secretion response ratio (treated cell medium to control DCCM1 medium) [2, 27]: 1.21
IFN-γ mRNA Expression [3, 8]: 0.8 fold change vs control
IFN-γ mRNA Expression [3, 12]: 0.2 fold change vs control
IFN-γ mRNA Expression [3, 16]: 0.2 fold change vs control
TNF-α mRNA Expression [4, 8]: 0.8 fold change vs control
TNF-α mRNA Expression [4, 12]: 0.8 fold change vs control
TNF-α mRNA Expression [4, 16]: 0.3 fold change vs control
